Where two headings read alike, the source gives them in different places. Some results are limits rather than exact numbers.

The subject of one data set is NMC 11060 xenografts. The experiment in a line: Patient-derived NMC 11060 primary xenograft study. The settings on record: 50 mg kg^−1 daily for four days. The class given is in vivo, mice. The text has this:
In parallel with these studies, a patient with widely metastatic BRD4-NUT positive NMC arising from the mediastinum was identified. With the goal of developing a more clinically-relevant disease model, short-term cultures were established using discarded clinical material obtained from pleural fluid draining from a palliative chest tube in the patient.

A further data set deals with GFP-BRD4 (Homo sapiens (Human), UniProt O60885).
The test system of the next data set is NMC 797 and Per403 cells. Briefly: Differentiation and proliferation immunohistochemistry, NMC cells. It is filed as cell-based, human. The source says:
Direct inhibition of gene products expressed from recurrent, oncogenic translocations is a validated therapeutic approach in cancer^28,29. The phenotypic consequences of chemical inhibition of BET-family bromodomains on the BRD4-dependent NUT midline carcinoma was explored. BRD4-NUT chromatin localization is mechanistically linked to the preserved tandem bromodomains of BRD4 in the fusion protein^17. A characteristic feature of NMC is the appearance of discrete nuclear speckles of the BRD4-NUT oncoprotein by NUT-directed immunohistochemistry (IHC)^30.
A striking differentiation phenotype is observed with knock-down of BRD4-NUT in NMC cell lines^17. […] Differentiation was prompt (<24 hours) and characterized by markedly augmented expression of cytokeratin, a hallmark of squamous differentiation (FIG. 3h).

Data set [1] has as its system Keratin-14, Keratin-10, epidermal transglutaminase (TGM1). The experiment in a line: RT-PCR expression analysis of squamous tissue genes in NMC 797 cells. It is filed as cell-based, human.
A further data set relates to NMC 797 cells. The experiment in a line: Flow cytometry for DNA content, NMC 797. It is filed as cell-based, human. The following applies: 250 nM, 48 h. The method, then: Data is presented as mean±s.d. (n=3). IC50 values were calculated by logistic regression. […] Data points are mean±s.d. (n=3). […] PI, propidium iodide. […] A significant response to therapy is observed by two-tailed t-test at 14 days (p=0.039). Data represent the mean±s.d. (n=7). […] Expanded fields are provided in Supplementary FIGS. 11, 12. […] Quantitative analysis of keratin induction was performed using image masking (FIG. 5J, right panel) and pixel positivity analysis (FIG. 5K). A significant response to therapy is observed by two-tailed t-test (p=0.0001). Data represent the mean±s.d. of three independent wide microscopic fields.
For orientation: A flow cytometer gives signals particle by particle.

The test system of another data set is NMC 11060 cells. The experiment in a line: Flow cytometry for DNA content, NMC 11060. It is filed as cell-based, human. The following applies: 250 nM, 48 h. The procedure:
Data is presented as mean±s.d. (n=3). IC50 values were calculated by logistic regression. […] Data points are mean±s.d. (n=3).

Data set [2] is described as follows: Pharmacokinetic studies in CD1 mice. The settings on record: for AUC: CD1, mouse, plasma.
Another data set relates to 797 cells. The experiment in a line: Cell proliferation assay, 797 cell line. The class given is cell-based. The settings on record: Homo sapiens, read-out: Cell-assay IC50 797 cells.
For the next data set, the target named is CBP (Homo sapiens (Human), UniProt Q92793). Briefly: AlphaScreen profiling against CBP. It is filed as binding. The procedure: (§1) Assays were performed as described previously^8 with minor modifications from the manufacturer's protocol (PerkinElmer, USA). All reagents were diluted in 50 mM HEPES, 100 mM NaCl, 0.1% BSA, pH 7.4 supplemented with 0.05% CHAPS and allowed to equilibrate to room temperature prior to addition to plates. […] Plates were sealed and incubated for a further 30 minutes, before the addition of 4 μl of streptavidin-coated donor beads (25 μg/ml) and 4 μl nickel chelate acceptor beads (25 μg/ml) under low light conditions. Plates were foil-sealed to protect from light, incubated at room temperature for 60 minutes and read on a PHERAstar FS plate reader (BMG Labtech, Germany) using an AlphaScreen 680 excitation/570 emission filter set. IC50 values were calculated in Prism 5 (GraphPad Software, USA) after normalization against corresponding DMSO controls and are given as the final concentration of compound in the 20 μl reaction volume.
Sequence of CBP (Q92793 whole entry): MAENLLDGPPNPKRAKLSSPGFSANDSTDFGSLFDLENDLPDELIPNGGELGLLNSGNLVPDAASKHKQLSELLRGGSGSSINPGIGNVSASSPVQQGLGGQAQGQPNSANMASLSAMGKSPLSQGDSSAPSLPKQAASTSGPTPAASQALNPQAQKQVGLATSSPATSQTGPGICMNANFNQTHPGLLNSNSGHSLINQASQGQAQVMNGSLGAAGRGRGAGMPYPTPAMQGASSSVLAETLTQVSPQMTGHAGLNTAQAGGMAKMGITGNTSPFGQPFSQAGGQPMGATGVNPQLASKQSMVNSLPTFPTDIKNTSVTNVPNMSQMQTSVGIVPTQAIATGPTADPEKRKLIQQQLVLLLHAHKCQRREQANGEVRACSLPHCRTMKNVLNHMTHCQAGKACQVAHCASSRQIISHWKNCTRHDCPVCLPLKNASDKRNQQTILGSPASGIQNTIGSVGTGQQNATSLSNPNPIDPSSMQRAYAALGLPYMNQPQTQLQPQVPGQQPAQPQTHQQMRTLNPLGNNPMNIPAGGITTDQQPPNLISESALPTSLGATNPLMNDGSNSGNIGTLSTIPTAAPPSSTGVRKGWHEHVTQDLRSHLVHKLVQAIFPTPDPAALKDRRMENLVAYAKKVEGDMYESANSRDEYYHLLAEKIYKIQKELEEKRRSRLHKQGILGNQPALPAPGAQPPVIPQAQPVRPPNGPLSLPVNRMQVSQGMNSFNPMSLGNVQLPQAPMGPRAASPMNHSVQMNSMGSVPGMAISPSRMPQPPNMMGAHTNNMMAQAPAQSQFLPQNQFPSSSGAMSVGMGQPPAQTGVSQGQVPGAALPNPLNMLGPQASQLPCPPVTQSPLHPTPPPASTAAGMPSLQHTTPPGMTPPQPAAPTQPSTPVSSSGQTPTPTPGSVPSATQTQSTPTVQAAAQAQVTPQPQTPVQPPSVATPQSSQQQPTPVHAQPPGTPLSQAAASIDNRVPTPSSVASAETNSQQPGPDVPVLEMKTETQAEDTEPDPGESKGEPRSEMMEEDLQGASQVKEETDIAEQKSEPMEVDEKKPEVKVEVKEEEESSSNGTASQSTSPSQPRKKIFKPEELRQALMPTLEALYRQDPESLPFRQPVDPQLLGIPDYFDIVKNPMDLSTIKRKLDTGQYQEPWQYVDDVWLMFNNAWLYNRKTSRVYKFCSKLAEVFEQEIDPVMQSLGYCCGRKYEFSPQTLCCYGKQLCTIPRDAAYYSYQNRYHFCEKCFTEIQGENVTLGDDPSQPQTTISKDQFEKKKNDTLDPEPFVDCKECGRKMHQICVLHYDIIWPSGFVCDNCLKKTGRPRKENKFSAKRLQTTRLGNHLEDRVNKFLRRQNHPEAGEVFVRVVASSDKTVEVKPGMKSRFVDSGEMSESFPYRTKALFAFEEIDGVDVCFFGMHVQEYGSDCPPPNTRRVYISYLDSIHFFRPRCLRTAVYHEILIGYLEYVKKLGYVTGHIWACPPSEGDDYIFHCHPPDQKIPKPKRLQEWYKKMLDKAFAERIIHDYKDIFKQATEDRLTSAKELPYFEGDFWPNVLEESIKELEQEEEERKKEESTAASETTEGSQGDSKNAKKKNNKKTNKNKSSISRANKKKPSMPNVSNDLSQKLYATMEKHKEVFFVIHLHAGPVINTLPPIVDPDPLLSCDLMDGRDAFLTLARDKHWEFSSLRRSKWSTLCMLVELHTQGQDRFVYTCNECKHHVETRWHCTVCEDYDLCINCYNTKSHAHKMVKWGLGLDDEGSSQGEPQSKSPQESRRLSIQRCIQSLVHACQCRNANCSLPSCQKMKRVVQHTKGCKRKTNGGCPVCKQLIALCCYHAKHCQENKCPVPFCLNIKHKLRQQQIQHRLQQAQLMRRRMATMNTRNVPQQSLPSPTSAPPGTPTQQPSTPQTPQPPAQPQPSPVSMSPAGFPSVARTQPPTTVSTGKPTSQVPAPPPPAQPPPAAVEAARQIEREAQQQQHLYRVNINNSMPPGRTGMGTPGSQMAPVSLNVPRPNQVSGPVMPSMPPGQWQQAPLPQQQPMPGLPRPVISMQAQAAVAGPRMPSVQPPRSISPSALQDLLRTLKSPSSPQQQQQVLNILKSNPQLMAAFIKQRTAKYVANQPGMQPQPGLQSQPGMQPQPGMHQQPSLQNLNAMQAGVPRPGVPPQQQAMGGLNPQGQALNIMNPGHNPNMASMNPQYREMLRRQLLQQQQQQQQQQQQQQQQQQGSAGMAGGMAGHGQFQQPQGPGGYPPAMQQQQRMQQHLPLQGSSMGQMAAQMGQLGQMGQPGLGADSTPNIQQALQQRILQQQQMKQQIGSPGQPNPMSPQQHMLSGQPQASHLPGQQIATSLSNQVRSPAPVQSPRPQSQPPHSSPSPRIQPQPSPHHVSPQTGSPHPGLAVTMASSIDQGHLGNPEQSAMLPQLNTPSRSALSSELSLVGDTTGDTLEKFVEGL

The subject of a further data set is BET family members. The experiment in a line: AlphaScreen profiling against other BET family members. It is filed as binding, human. In general terms: In Alpha technology, singlet oxygen from a donor bead excites a nearby acceptor bead.
Another data set addresses BRD4(1) (Homo sapiens (Human), UniProt O60885). Briefly: Alpha-assay acetyl-histone binding, BRD4 site 1. The settings on record: 12-point dose response curve; for IC50: read-out: Bio-assay IC50 BRD4(1). The method, then:
The binding activity of lead compounds with the BRD4 site 1 was determined by Alpha-assay with a 12-point dose response curve (FIG. 56A).
as §1

The target in another data set is BRD4(2) (Homo sapiens (Human), UniProt O60885). The experiment in a line: Alpha-assay acetyl-histone binding, BRD4 site 2. The settings on record: 12-point dose response curve; for IC50: read-out: Bio-assay IC50 BRD4(2).
A short description of data set [3]: Unspecified biological assay.
Another data set has as its system TT and TE10. The experiment in a line: Cell proliferation assay, non-NMC squamous carcinoma lines. The following applies: TT and TE10, 250 nM, 72 hours. It is filed as cell-based, human. The procedure:
Data is presented as mean±s.d. (n=3). IC50 values were calculated by logistic regression.

Another data set relates to BRD3-NUT cells. Briefly: BRD3-NUT xenograft study. The class given is in vivo, mice. The settings on record: 50 mg/kg IP 7 days/week. The text has this:
Mice were implanted subcutaneously with BRD3-NUT cells. Tumor measurement data were collected weekly. […] On day 24 post-injection, five mice from each group were euthanized and tumor samples were collected to be sent for lab analysis. Throughout the remainder of the study tumor samples were collected as mice were sacrificed. For all samples one half of the tumor was fixed in 10% formalin and the other half was flash frozen on dry ice. Treatment ended on day 32. Tumor volume and weights were collected weekly until all mice either became moribund or tumors reached 2 cm in any dimension. […] Upon cessation of therapy, tumor growth resumed. Tumor volume differences were significant at all points (p=7.65274E-09 at Day 24).

The subject of another data set is TE10 and TT. Briefly: Differentiation immunohistochemistry, non-BRD4-dependent squamous carcinoma lines. The class given is cell-based, human.
Data set [4] concerns BRD4-dependent human carcinoma cells. The experiment in a line: Annexin-V/propidium iodide flow cytometry, BRD4-dependent carcinoma cells. The settings on record: 500 nM, 24 or 48 hours. The class given is cell-based. The method, then:
Thus, early and late apoptosis was assessed with annexin-V and propidium iodide staining by flow cytometry.
Trypsinized cells were mixed 1:1 on ice with Annexin-V/propidium iodide buffer (10 mM HEPES pH 7.4, 140 mM NaCl, 2.5 mM CaCl2) containing Annexin V-FITC (BD Pharmingen, 1:500) and propidium iodide (Invitrogen, 1:1000). Samples were immediately analyzed on a BD FACS Canto II. Visualizations and analyses of apoptotic fractions were generated using FlowJo flow cytometry analysis software (Tree Star, Inc.).

The next data set concerns the target GFP-BRD4-NUT (Homo sapiens (Human), UniProt O60885+Q86Y26). The following applies: 500 nM, compared to vehicle control.
Another data set concerns the target GFP-NUT (Homo sapiens (Human), UniProt Q86Y26). The experiment in a line: FRAP in U2OS cells, GFP-NUT. The following applies: 500 nM.
Another data set deals with NMC 797 xenografts. Briefly: NMC 797 xenograft efficacy study.
A further data set relates to cellular receptors. The experiment in a line: Off-target effects on cellular receptors.

Sequence of GFP-NUT (Q86Y26 whole entry, looked up): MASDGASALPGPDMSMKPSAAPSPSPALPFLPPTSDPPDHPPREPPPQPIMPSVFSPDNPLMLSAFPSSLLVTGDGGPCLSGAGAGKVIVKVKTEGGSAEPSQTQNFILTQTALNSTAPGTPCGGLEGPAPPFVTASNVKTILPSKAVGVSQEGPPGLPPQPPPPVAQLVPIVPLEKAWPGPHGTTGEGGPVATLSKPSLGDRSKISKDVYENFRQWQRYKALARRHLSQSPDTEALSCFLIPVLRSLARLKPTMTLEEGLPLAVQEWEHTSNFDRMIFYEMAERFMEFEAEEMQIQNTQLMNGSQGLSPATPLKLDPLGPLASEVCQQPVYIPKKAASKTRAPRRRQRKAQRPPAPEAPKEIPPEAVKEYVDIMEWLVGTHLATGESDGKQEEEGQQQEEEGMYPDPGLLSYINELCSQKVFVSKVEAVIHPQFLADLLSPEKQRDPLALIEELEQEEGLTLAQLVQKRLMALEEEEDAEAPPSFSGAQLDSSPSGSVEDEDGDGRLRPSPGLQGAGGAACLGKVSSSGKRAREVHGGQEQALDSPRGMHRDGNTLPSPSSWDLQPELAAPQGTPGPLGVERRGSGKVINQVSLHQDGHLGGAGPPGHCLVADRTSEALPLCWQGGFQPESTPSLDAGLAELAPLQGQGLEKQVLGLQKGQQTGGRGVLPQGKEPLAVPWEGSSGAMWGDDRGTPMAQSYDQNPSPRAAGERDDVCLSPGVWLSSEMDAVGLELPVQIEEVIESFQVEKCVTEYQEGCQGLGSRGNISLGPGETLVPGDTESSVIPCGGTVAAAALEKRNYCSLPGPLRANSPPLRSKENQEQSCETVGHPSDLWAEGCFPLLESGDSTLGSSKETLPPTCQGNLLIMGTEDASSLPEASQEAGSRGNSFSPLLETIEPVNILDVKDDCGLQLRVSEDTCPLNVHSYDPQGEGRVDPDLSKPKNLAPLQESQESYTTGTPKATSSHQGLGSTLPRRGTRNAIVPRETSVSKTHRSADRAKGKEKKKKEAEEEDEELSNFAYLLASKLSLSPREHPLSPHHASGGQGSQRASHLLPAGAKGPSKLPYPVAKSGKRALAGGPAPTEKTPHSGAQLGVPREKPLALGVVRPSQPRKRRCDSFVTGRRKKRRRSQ
Experimental for GFP-BRD4-NUT: (§2) FRAP studies were performed on U2OS cells as previously described^3,20. In brief, U2OS cells were transfected (lipofectamine; Invitrogen) with mammalian overexpression constructs encoding GFP chimera with BRD4, NUT and BRD4-NUT. A 5 μm^2 nuclear region was bleached with high laser intensity in one cell within each field, and measured for recovery with low laser intensity and a 150 μm pinhole. Images of identical fields were acquired using a Nikon Cl Plus confocal microscope equipped with a 37° C. heated chamber and FRAP modules over 90 seconds. Average intensities of the bleached region were measured over time and using MetaMorph v7, and normalized to an independent region of interest before bleaching.
Experimental for GFP-NUT: as §2
Experimental for NMC 797 xenografts: Prior to randomization and after four days of therapy, mice were evaluated by PET imaging.
To capture comparative mechanistic and pharmacodynamic data, all animals were sacrificed and tumors were explanted for histopathologic analysis.
Animals were followed daily for clinical symptoms. Tumor measurements were assessed by caliper measurements, and volume calculated using the formula Vol=0.5×L×W^2. After 2 weeks of treatment, all mice were humanely euthanized, and tumors were fixed in 10% formalin for histopathological examination. Statistical significance of tumor volumes was calculated by two-sided Students t-test. All animal studies were approved by the IACUC of the DFCI.

For `Cc1sc2c(c1C)C(c1ccc(Cl)cc1)=N[C@@H](CC(=O)OC(C)(C)C)c1nnc(C)n1-2` (single isomer, unassigned) [(+)-JQ1], in the data set on NMC 11060 xenografts, the “FDG uptake by PET imaging” value is listed as “marked response on FDG uptake” and the “tumor keratin expression, quantitative IHC” value is “induction of keratin expression”. Besides, the “fluorescence recovery of GFP-BRD4” value at GFP-BRD4 (250 nM, 5 h, compared to vehicle control) is on record as “enhanced recovery”. Moreover, in the data set with NMC 797 and Per403 cells (BRD4-dependent NMC cells), the “differentiation and growth arrest phenotypes” value is “differentiation and growth arrest phenotypes are prompted”. Also, in data set [1], the “effect on epidermal transglutaminase (TGM1)” value is given as “absent effect” and the “induction of Keratin-10” value is reported as “modest induction”. Besides, the “cell cycle (DNA content)” value in the data set on NMC 797 cells is given as “induced a G1 arrest”. Moreover, in the data set with NMC 11060 cells, the “cell cycle (DNA content)” value is “induces a G1 arrest”. In data set [2] (iv, 5 mg/kg), the AUC (usually concentration integrated over time) worked out at 2090 ng·h/mL. For the same compound, the AUC in data set [2] (po, 10 mg/kg) turned out to be 2090 ng·h/mL. In addition, the “half-life (T1/2)” value in data set [2] (CD1 mice, intravenous 5 mg kg^−1) was “approximately one”.
`Cc1sc2c(c1C)C(c1ccc(Cl)cc1)=N[C@H](CC(=O)OC(C)(C)C)c1nnc(C)n1-2` [(R)-JQ1]: in the data set on 797 cells (72 h), the IC50 (usually the point on the concentration scale where inhibition reaches its midpoint) came out at 1540 nM.
Consider `Cc1sc2c(c1C)C(c1ccc(Cl)cc1)=N[C@@H](CC(=O)OC(C)(C)C)c1nnc(C)n1-2` [JQ1S], for which the “binding and inhibition of CBP” value on CBP is “inactive”. The “binding and inhibition of BET family members” value with BET family members is given as “active”.
Turning to `Cc1sc2c(c1C)C(c1ccc(Cl)cc1)=N[C@@H](CC(=O)N/N=C/c1ncc[nH]1)c1nnc(C)n1-2` [JQ6], at BRD4(1), the “binding activity with the BRD4 site 1” value is reported as “excellent binding activity”. The “binding activity with the BRD4 site 2” value on BRD4(2) is on record as “excellent binding activity”.
As for `Cc1sc2c(c1C)C(c1ccc(Cl)cc1)=N[C@@H](CC(=O)NCCc1cnc[nH]1)c1nnc(C)n1-2` [JQ8], at BRD4(1), the “binding activity with the BRD4 site 1” value is recorded as “excellent binding activity”. Moreover, the “binding activity with the BRD4 site 2” value at BRD4(2) is recorded as “excellent binding activity”.
Regarding `Cc1sc2c(c1C)C(c1ccc(Cl)cc1)=N[C@@H](CC(=O)NCCN1CCN(C)CC1)c1nnc(C)n1-2` [JQ13], on BRD4(1), the “binding activity with the BRD4 site 1” value is on record as “excellent binding activity” and the IC50 is 2.49 nM. In addition, on BRD4(2), the “binding activity with the BRD4 site 2” value was “excellent binding activity” and the IC50 came to 0.584 nM. The IC50 in the data set with 797 cells (proliferation after 72 hours) is 10900 nM.
As to `Cc1sc2c(c1C)C(c1ccc(Cl)cc1)=NC(CC(=O)NCCN1CCOCC1)c1nnc(C)n1-2` (centres unmarked) [JQ33], on BRD4(1), the “binding activity with the BRD4 site 1” value is on record as “excellent binding activity” and the IC50 turned out to be 85 nM. In addition, on BRD4(2), the “binding activity with the BRD4 site 2” value was “excellent binding activity” and the IC50 came out at 29.5 nM.
Turning to `Cc1sc2c(c1C)C(c1ccc(Cl)cc1)=NC(CC(=O)NCCCN1CCN(C)CC1)c1nnc(C)n1-2` (centres unmarked) [JQ35], on BRD4(1), the “binding activity with the BRD4 site 1” value was “excellent binding activity”. Also, the “binding activity with the BRD4 site 2” value on BRD4(2) is reported as “excellent binding activity”.
As for `Cc1sc2c(c1C)C(c1ccc(Cl)cc1)=NC(CC(=O)NN)c1nnc(C)n1-2` (centres unmarked) [hydrazide (3)], the “activity in at least one biological assay” value in data set [3] is recorded as “showed activity”.
Same read-out and setting: as for `Cc1sc2c(c1C)C(c1ccc(Cl)cc1)=NC(CC(=O)NN=Cc1ccc(O)cc1)c1nnc(C)n1-2` (centres unmarked) [hydrazone (4)], the entry is “showed activity”.
In the case of “tert-Butyl 2-(4-(4-chlorophenyl)-2,3,9-trimethyl-6H-thieno[3,2-f][1,2,4]triazolo[4,3-a][1,4]diazepin-6-yl)acetate [JQ1]”, the “effect on cell proliferation” value in the data set with TT and TE10 is “Minimal effects observed on cell proliferation”. Also, in the data set with BRD3-NUT cells, the body weight entry was “mild weight loss with rapid recovery after cessation of therapy” and the tumor volume result is given as “tumor regression while on therapy”. Further, the “fluorescence recovery of GFP-BRD4” value at GFP-BRD4 (U2OS cells, 500 nM) was “observed recovery is immediate”. The “nuclear NUT foci by IHC” value in the data set on NMC 797 and Per403 cells (797 NMC cell line, 500 nM, 48 hours) is “effaced nuclear foci”. This compound also yielded a time to differentiation in the data set on NMC 797 and Per403 cells (NMC 797 and Per403 cells) of less than 24 h. In addition, the differentiation effects result in the data set on TE10 and TT is reported as “fail to exhibit differentiation effects”. Also, in data set [4], the “apoptosis (annexin-V and propidium iodide staining)” value is “induced immediate and progressive apoptosis”. Moreover, the “time-to-recovery of fluorescence intensity, GFP-BRD4-NUT” value at GFP-BRD4-NUT is recorded as “markedly accelerated time-to-recovery of fluorescence intensity”. The “redistribution of GFP-NUT” value on GFP-NUT is “no effect was observed”. In the data set on NMC 797 xenografts (50 mg kg^−1 daily intraperitoneal, 14 days), the “tumor growth (tumor volume by caliper)” value was “statistically-significant reduction in tumor growth”. In the data set on NMC 797 xenografts (50 mg kg^−1 daily intraperitoneal, four days), the “FDG uptake by PET imaging” value was “marked response on FDG uptake”. Also, the “tumor keratin expression, quantitative IHC” value in the data set on NMC 797 xenografts (50 mg kg^−1 daily, excised tumors) is on record as “strong (3+) keratin expression”. In addition, in the data set on NMC 797 xenografts (50 mg kg^−1 daily, excised tumors, IHC), the “NUT nuclear speckles in sectioned tumor tissue” value is given as “effacement of NUT nuclear speckles”. In addition, in data set [2] (CD1 mice, oral 10 mg kg^−1), the “oral bioavailability (F)” value was 49%. The “off-target effects on cellular receptors” value in the data set on cellular receptors is reported as “few off-target effects on cellular receptors”.
